{"source": "patent US20250127787A1", "about": "“METHODS FOR TREATING PERIPHERAL NEUROPATHY” (University of Pittsburgh - Of the Commonwealth System of …, priority 2021, published 2025)", "key": {"PGP 9.5": {"tested_on": "PGP 9.5", "experiment": "PGP 9.5 immunocytochemistry of CYP-CIPN rat epidermis (nerve terminals, edema)", "type": "in vivo", "settings": "fluorescent images, oral 8-AG", "method": "(§1) Animals. This study employed female Harlan Sprague Dawley (HSD) rats (3-4 mo; Envigo, Indianapolis, IN) and were divided into the following groups: 1) Control, 2) Cyclophosphamide (CYP, 75 mg/kg i.p. in saline vehicle; administered on days 0, 3 and 6); 3) 8-aminoguanine (8-AG; 5 mg/kg/day in drinking water; beginning 2 weeks prior to CYP and continuing until sacrifice (day 8)). The dose of 8-AG is based on our preliminary and published experiments. […] The investigation conforms to the Guide for the Care and Use of Laboratory Animals published by the US National Institutes of Health (NIH Publication No. 85-23, revised 1996). In addition, all tissues (dorsal root ganglion, spinal cord, peripheral nerves and hindpaw epidermis) were removed from isoflurane anesthetized rats and the tissue was used for various experimental approaches as described below. At the end of tissue removal, animals were sacrificed by thoracotomy.\nImmunocytochemistry: A portion of tissues (a 3 mm biopsy from the rat hindpaw food pad or epidermis) is placed overnight in fixative (4% PFA) and cryoprotected (30% sucrose-phosphate buffered saline). Fluorescence immunocytochemistry was used to process cross-sections (20 μm) using antibodies (validated in rat tissue) against PGP 9.5 (Invitrogen PA5-29012, neuron specific protein; 1:500 dilution). […]"}, "[1]": {"tested_on": "superoxide dismutase (SOD1)", "experiment": "SOD1 expression in CYP-CIPN rat peripheral (sciatic) nerves, Western immunoblotting", "type": "in vivo", "settings": "8-AG 5 mg/kg/day in drinking water from 2 weeks prior to CYP", "method": "as §1, with “In addition, all tissues (dorsal root ganglion, spinal cord, peripheral nerves and hindpaw epidermis) were removed from isoflurane anesthetized rats and the tissue was used for various experimental approaches as described below. At the end of tissue removal, animals were sacrificed by thoracotomy.” left out\nWestern immunoblotting: Following the testing paradigms, rats were deeply anesthetized and tissues (e.g., epidermis, peripheral sciatic nerves, spinal cord segments (L3-L5) and dorsal root ganglia (L3-L5) were removed, and a portion of each preparation was homogenized using Lysing Matrix D in a FASTPREP® 24 instrument (MP Biomedicals, Solon, OH) in HBSS [5 mM KCl, 0.3 mM KH2PO4, 138 mM NaCl, 4 mM NaHO3, 0.3 mM Na2HCO3, 0.3 mM Na2HPO4, 5.6 mM glucose and 10 mM Hepes, pH 7.4 containing complete protease inhibitor cocktail (1 tablet/10 ml, Roche, Indianapolis, IN)] and phosphatase inhibitor cocktail (Sigma, 1:100). […] The protein concentrations of the supernatants were determined using the Pierce BCA protein assay (Thermo Scientific, Rockford, IL). […]"}, "inosine and guanosine": {"tested_on": "inosine and guanosine", "experiment": "Purine levels (inosine, guanosine) in CYP-CIPN rat epidermis (footpad)", "type": "in vivo", "settings": "8-AG 5 mg/kg/day in drinking water", "method": "as §1"}, "CYP—CIPN rats": {"tested_on": "CYP—CIPN rats", "experiment": "Von Frey sensory testing in CYP-CIPN rats", "type": "in vivo, rat", "settings": "hindpaw, 8-AG 5 mg/kg/day in drinking water", "method": "as §1\nControl, CYP and 8-AG-treated CYP rats were placed in an elevated chamber on a wire mesh floor and after acclimatization, calibrated von Frey microfilaments were applied to determine paw withdrawal threshold (PWT, in grams). Briefly, microfilaments (Stoelting Corp, USA) are applied with different forces perpendicularly to the plantar surface of both ipsilateral and contralateral hindpaw by increasing and decreasing stimulus intensity. […]"}}, "note": "“Also recorded” adds a separate entry of the source.", "data": [{"smiles": "Nc1nc2[nH]c(N)nc2c(=O)[nH]1", "note": "[8-AG, 8-Aminoguanine]", "values": [{"measurement": "effect on CYP-induced gross edema", "setting": "PGP 9.5", "value": "normalized"}, {"measurement": "effect on CYP-induced neural damage (ragged/damaged fine nerve terminals, PGP 9.5 distribution)", "setting": "PGP 9.5", "value": "normalized"}, {"measurement": "effect on CYP-induced decrease in SOD1 expression", "setting": "[1]", "value": "normalized; also recorded: prevented"}, {"measurement": "effect on CYP-induced decrease in guanosine levels", "setting": "inosine and guanosine", "value": "normalizes; also recorded: completely restored"}, {"measurement": "effect on CYP-induced decrease in inosine levels", "setting": "inosine and guanosine", "value": "normalizes; also recorded: completely restored"}, {"measurement": "effect on CYP-induced increase in sensitivity to mechanical stimuli (paw withdrawal threshold)", "setting": "CYP—CIPN rats", "value": "restored to control values; also recorded: normalizes; also recorded: normalized to control conditions"}]}]}
